Values quoted from earlier work, collected in PubChem BioAssay AID1259409 (Chemical Carcinogenesis Research Information System (CCRIS), 2018).

Tested on: rodent chemically induced tumor inhibition, incidence and multiplicity
Experiment: CCRIS tumor inhibitor studies
Settings: Route [Inhibitor]: ORAL, Species: RAT, Strain/Sex: F344/MALE, Promoter: NONE USED

O=C1O[C@H]([C@@H](O)CO)C(O)=C1O
tumour outcome (control, treated, inhibition, significance) (Carcinogen: N-BIS(2-HYDROXYPROPYL)NITROSAMINE, 53609-64-6, Dose [Inhibitor]: 0, 5% IN DIET FOR 30 WK BEGINNING POST CARCINOGEN TREATMENT (STUDY DURATION: 32 WK), Target Tissue: Type of Lesion: BLADDER: ADENOMA, Dose [Carcinogen]: 0.1% IN DRINKING WATER FOR 2 WK): 5%, 10%, -100%, not calculated
tumour outcome (control, treated, inhibition, significance) (Carcinogen: N-BIS(2-HYDROXYPROPYL)NITROSAMINE, 53609-64-6, Dose [Inhibitor]: 0, 5% IN DIET FOR 30 WK BEGINNING POST CARCINOGEN TREATMENT (STUDY DURATION: 32 WK), Target Tissue: Type of Lesion: KIDNEY: TUMOR, Dose [Carcinogen]: 0.1% IN DRINKING WATER FOR 2 WK): 10%, 30%, -200%, not calculated
tumour outcome (control, treated, inhibition, significance) (Carcinogen: N-BIS(2-HYDROXYPROPYL)NITROSAMINE, 53609-64-6, Dose [Inhibitor]: 0, 5% IN DIET FOR 30 WK BEGINNING POST CARCINOGEN TREATMENT (STUDY DURATION: 32 WK), Target Tissue: Type of Lesion: LUNG: ADENOMA, Dose [Carcinogen]: 0.1% IN DRINKING WATER FOR 2 WK): 100%, 100%, 0%, not significant
tumour outcome (control, treated, inhibition, significance) (Carcinogen: N-BIS(2-HYDROXYPROPYL)NITROSAMINE, 53609-64-6, Dose [Inhibitor]: 0, 5% IN DIET FOR 30 WK BEGINNING POST CARCINOGEN TREATMENT (STUDY DURATION: 32 WK), Target Tissue: Type of Lesion: LUNG: CARCINOMA, Dose [Carcinogen]: 0.1% IN DRINKING WATER FOR 2 WK): 45%, 20%, 56%, not calculated
tumour outcome (control, treated, inhibition, significance) (Carcinogen: N-BIS(2-HYDROXYPROPYL)NITROSAMINE, 53609-64-6, Dose [Inhibitor]: 0, 5% IN DIET FOR 30 WK BEGINNING POST CARCINOGEN TREATMENT (STUDY DURATION: 32 WK), Target Tissue: Type of Lesion: THYROID: ADENOMA, Dose [Carcinogen]: 0.1% IN DRINKING WATER FOR 2 WK): 5%, 30%, -500%, not calculated
tumour outcome (control, treated, inhibition, significance) (Carcinogen: N-BIS(2-HYDROXYPROPYL)NITROSAMINE, 53609-64-6, Dose [Inhibitor]: 0, 5% IN DIET FOR 30 WK BEGINNING POST CARCINOGEN TREATMENT (STUDY DURATION: 32 WK), Target Tissue: Type of Lesion: THYROID: CARCINOMA, Dose [Carcinogen]: 0.1% IN DRINKING WATER FOR 2 WK): 20%, 10%, 50%, not calculated
tumour outcome (control, treated, inhibition, significance) (Carcinogen: N-BUTYL-N-(4-HYDROXYBUTYL)NITROSAMINE, 3817-11-6, Dose [Inhibitor]: 4.45% IN BASAL DIET ADMINISTERED SIMULTANEOUSLY WITH CARCINOGEN DOSE FOR 20 WK (STUDY DURATION: 20 WK), Target Tissue: Type of Lesion: BLADDER: CARCINOMA, Dose [Carcinogen]: 0.025% IN DRINKING WATER FOR 20 WK): 3/15 (20%), 6/14 (43%), -115%, not calculated
tumour outcome (control, treated, inhibition, significance) (Carcinogen: N-BUTYL-N-(4-HYDROXYBUTYL)NITROSAMINE, 3817-11-6, Dose [Inhibitor]: 4.45% IN BASAL DIET ADMINISTERED SIMULTANEOUSLY WITH CARCINOGEN DOSE FOR 20 WK (STUDY DURATION: 20 WK), Target Tissue: Type of Lesion: BLADDER: PAPILLOMA, Dose [Carcinogen]: 0.025% IN DRINKING WATER FOR 20 WK (FOR A TOTAL INTAKE OF 4.0 MMOL/RAT)): 4/15 (27%), 4/14 (29%), -7%, not calculated
tumour outcome (control, treated, inhibition, significance) (Carcinogen: N-BUTYL-N-(4-HYDROXYBUTYL)NITROSAMINE, 3817-11-6, Dose [Inhibitor]: 5% DIET DAILY FOR 34 WK BEGINNING POST CARCINOGEN TREATMENT (STUDY DURATION: 38 WK), Target Tissue: Type of Lesion: URINARY BLADDER: PAPILLOMA, Dose [Carcinogen]: 0.01% IN DRINKING WATER FOR 4 WK): 33%, 21%, 36%, not significant
tumour outcome (control, treated, inhibition, significance) (Carcinogen: N-BUTYL-N-(4-HYDROXYBUTYL)NITROSAMINE, 3817-11-6, Dose [Inhibitor]: 5% IN BASAL DIET ADMINISTERED SIMULTANEOUSLY WITH CARCINOGEN DOSE FOR 20 WK (STUDY DURATION: 20 WK), Target Tissue: Type of Lesion: BLADDER: CARCINOMA, Dose [Carcinogen]: 0.025% IN DRINKING WATER FOR 20 WK): 3/15 (20%), 6/15 (40%), -100%, not calculated
tumour outcome (control, treated, inhibition, significance) (Carcinogen: N-BUTYL-N-(4-HYDROXYBUTYL)NITROSAMINE, 3817-11-6, Dose [Inhibitor]: 5% IN BASAL DIET ADMINISTERED SIMULTANEOUSLY WITH CARCINOGEN DOSE FOR 20 WK (STUDY DURATION: 20 WK), Target Tissue: Type of Lesion: BLADDER: PAPILLOMA, Dose [Carcinogen]: 0.025% IN DRINKING WATER FOR 20 WK (FOR A TOTAL INTAKE OF 4.7 MMOL/RAT)): 4/15 (27%), 2/15 (13%), 50%, not significant
tumour outcome (control, treated, inhibition, significance) (Carcinogen: N-ETHYL-N-(4-HYDROXYBUTYL)NITROSAMINE, 54897-62-0, Dose [Inhibitor]: 4.45% IN BASAL DIET ADMINISTERED SIMULTANEOUSLY WITH CARCINOGEN DOSE FOR 20 WK (STUDY DURATION: 20 WK), Target Tissue: Type of Lesion: BLADDER: CARCINOMA, Dose [Carcinogen]: 0.021% IN DRINKING WATER FOR 20 WK): 13/15 (87%), 14/15 (93%), -8%, not calculated
tumour outcome (control, treated, inhibition, significance) (Carcinogen: N-ETHYL-N-(4-HYDROXYBUTYL)NITROSAMINE, 54897-62-0, Dose [Inhibitor]: 4.45% IN BASAL DIET ADMINISTERED SIMULTANEOUSLY WITH CARCINOGEN DOSE FOR 20 WK (STUDY DURATION: 20 WK), Target Tissue: Type of Lesion: BLADDER: PAPILLOMA, Dose [Carcinogen]: 0.021% IN DRINKING WATER FOR 20 WK): 14/15 (93%), 15/15 (100%), -7%, not calculated
tumour outcome (control, treated, inhibition, significance) (Carcinogen: N-ETHYL-N-(4-HYDROXYBUTYL)NITROSAMINE, 54897-62-0, Dose [Inhibitor]: 5% IN BASAL DIET ADMINISTERED SIMULTANEOUSLY WITH CARCINOGEN DOSE FOR 20 WK (STUDY DURATION: 20 WK), Target Tissue: Type of Lesion: BLADDER: CARCINOMA, Dose [Carcinogen]: 0.021% IN DRINKING WATER FOR 20 WK): 13/15 (87%), 13/15 (87%), 0%, not significant
